Source: ChEMBL document CHEMBL1122528, “Synthesis and evaluation of furan, thiophene, and azole bis[(carbamoyloxy)methyl] derivatives as potential antineoplastic agents” (J Med Chem, 1984)
Calls of active or inactive are those of the source. No cut-off for these calls is given here.

These compounds were tested on P388 (assay: Compound was tested for antileukemic activity against murine P388 lymphocytic leukemia; Inactive). Details: Mus musculus.
Assay type: functional, cell-based
`CNC(=O)OCc1c(COC(=O)NC)c(C)n(-c2ccccc2)c1C` was tested, and the Activity was “inactive”. In the case of `CNC(=O)OCc1nc(-c2ccccc2)oc1COC(=O)NC`, the Activity is reported as “inactive”. In the case of `CNC(=O)OCc1c(COC(=O)NC)c(-c2ccc(C)cc2)n(C)c1C`, the Activity is reported as “inactive”. In the case of `CNC(=O)OCc1snc(-c2ccccc2)c1COC(=O)NC`, the Activity is reported as “inactive”. `CNC(=O)OCc1onc(-c2ccccc2)c1COC(=O)NC` was tested, and the Activity was “inactive”. `CNC(=O)OCc1nc(-c2ccccc2)sc1COC(=O)NC` was tested, and the Activity was “inactive”. In the case of `CNC(=O)OCc1c(C)sc(-c2ccccc2)c1COC(=O)NC`, the Activity is reported as “inactive”. With `CNC(=O)OCc1nnn(-c2ccccc2)c1COC(=O)NC` the Activity was “inactive”. In the case of `CNC(=O)OCc1cn(-c2ccc(Cl)c(Cl)c2)nc1COC(=O)NC`, the Activity is reported as “inactive”.
